Values joined by “and” are separate entries in the source; they are usually repeats but may differ in a detail not shown here. Equal values may be shown once.

Common to all, as to test: greenhouse pre-emergence herbicidal test
What all share (format): in vivo

One assay has as its system Echinocloa crus-galli. The text has this:
(§1) The seeds of the test plants were sown separately for each species. For the pre-emergence treatment, the active ingredients, which had been suspended or emulsified in water, were applied directly after sowing by means of finely distributing nozzles. The containers were irrigated gently to promote germination and growth and subsequently covered with transparent plastic hoods until the plants had rooted. This cover caused uniform germination of the test plants, unless this had been impaired by the active ingredients. […] The test period extended over 2 to 4 weeks. During this time, the plants were tended, and their response to the individual treatments was evaluated. Evaluation was carried out using a scale from 0 to 100. 100 means no emergence of the plants, or complete destruction of at least the aerial moieties, and 0 means no damage, or normal course of growth. A moderate herbicidal activity is given at values of at least 60, a good herbicidal activity is given at values of at least 70, and a very good herbicidal activity is given at values of at least 85. The plants used in the greenhouse experiments were of the following species: [table]

Another assay concerns Setaria faberi.
Excerpt: as §1

For a further assay, the system named is Amaranthus retroflexus.
Excerpt: as §1

With `COc1c(Br)cc(Cl)c(C)c1Nc1nc(N)nc(C(C)F)n1` (racemic) [Example 96], the herbicidal activity in the assay with Echinocloa crus-galli (62 g/ha) worked out at 70%; in the assay on Setaria faberi (62 g/ha), 75%.
Take `C#CCOc1c(Br)cc(F)c(C)c1Nc1nc(N)nc(C(C)(C)F)n1` [Example 22]: the herbicidal activity with Amaranthus retroflexus (62 g/ha) is reported as 100%; in the assay on Amaranthus retroflexus (62.5 g/ha) it was 85%; in the assay with Echinocloa crus-galli (62 g/ha), 100%; in the assay with Echinocloa crus-galli (62.5 g/ha), 85%; in the assay with Setaria faberi (62 g/ha), 100%; in the assay with Setaria faberi (62.5 g/ha), 100%.
With `CCOc1c(Br)cc(F)c(C)c1Nc1nc(N)nc(C(C)(C)F)n1` [Example 23], the herbicidal activity with Amaranthus retroflexus (62 g/ha), in the assay on Amaranthus retroflexus (62.5 g/ha), in the assay on Echinocloa crus-galli (62 g/ha), in the assay with Echinocloa crus-galli (62.5 g/ha), in the assay with Setaria faberi (62 g/ha) and in the assay with Setaria faberi (62.5 g/ha) was 100% each time.
In the case of `CC#CCOc1c(F)cc(F)c(Cl)c1Nc1nc(N)nc(C(C)(C)F)n1` [Example 25], the herbicidal activity with Amaranthus retroflexus (62 g/ha), in the assay on Amaranthus retroflexus (250 g/ha), in the assay on Echinocloa crus-galli (62 g/ha), in the assay with Echinocloa crus-galli (250 g/ha), with Setaria faberi (62 g/ha) and with Setaria faberi (250 g/ha) was 100% throughout.
Consider `CCC#CCOc1c(F)cc(F)c(Cl)c1Nc1nc(N)nc(C(C)(C)F)n1` [Example 26], for which the herbicidal activity in the assay with Amaranthus retroflexus (62 g/ha), in the assay with Amaranthus retroflexus (250 g/ha), in the assay with Echinocloa crus-galli (62 g/ha), with Echinocloa crus-galli (250 g/ha), with Setaria faberi (62 g/ha) and in the assay with Setaria faberi (250 g/ha) was 100% throughout.
In the case of `CC(C)(F)c1nc(N)nc(Nc2c(Cl)c(F)cc(F)c2OCC#CC2CC2)n1` [Example 27], the herbicidal activity with Amaranthus retroflexus (31 g/ha), with Amaranthus retroflexus (62 g/ha), in the assay with Echinocloa crus-galli (62 g/ha), with Setaria faberi (31 g/ha) and in the assay with Setaria faberi (62 g/ha) was 100% throughout.
Consider `C#CCOc1c(F)cc(F)c(Cl)c1Nc1nc(N)nc(C(C)(C)F)n1` [Example 28], for which the herbicidal activity with Amaranthus retroflexus (62 g/ha), with Amaranthus retroflexus (62.5 g/ha), with Echinocloa crus-galli (62 g/ha), in the assay with Echinocloa crus-galli (62.5 g/ha), in the assay with Setaria faberi (62 g/ha) and in the assay with Setaria faberi (62.5 g/ha) was 100% in each case.
As to `COc1c(Br)cc(F)c(Cl)c1Nc1nc(N)nc(C2(F)CC2)n1` [Example 42], the herbicidal activity in the assay with Amaranthus retroflexus (31 g/ha), with Echinocloa crus-galli (31 g/ha) and with Setaria faberi (31 g/ha) was 100% each time.
As for `COc1c(Cl)ccc(Cl)c1Nc1nc(N)nc(C(C)(F)F)n1` [Example 72], the herbicidal activity in the assay with Amaranthus retroflexus (62 g/ha) is 100%; with Echinocloa crus-galli (62 g/ha) it was 100%; with Setaria faberi (62 g/ha) it was 80% and 100%.
As for `COc1c(Cl)cc(F)c(C)c1Nc1nc(N)nc(C2(F)CCCC2)n1` [Example 73], the herbicidal activity with Amaranthus retroflexus (62 g/ha), with Echinocloa crus-galli (62 g/ha) and in the assay on Setaria faberi (62 g/ha) was 100% each time.
Regarding `COc1c(Br)cc(F)c(C)c1Nc1nc(N)nc(C(C)F)n1` (stereo not shown) [Example 74], the herbicidal activity in the assay with Amaranthus retroflexus (62 g/ha), with Echinocloa crus-galli (62 g/ha) and in the assay with Setaria faberi (62 g/ha) was 100% each time.
On to `COc1c(Br)cc(F)c(C)c1Nc1nc(N)nc(C(C)(F)CCl)n1` (stereo not shown) [Example 75], for which the herbicidal activity in the assay on Amaranthus retroflexus (62 g/ha), in the assay with Echinocloa crus-galli (62 g/ha) and in the assay with Setaria faberi (62 g/ha) was 100% each time.
As to `COc1c(Br)cc(F)c(C)c1Nc1nc(N)nc(C(C)(F)CBr)n1` (stereo not shown) [Example 76], the herbicidal activity with Amaranthus retroflexus (62 g/ha), with Echinocloa crus-galli (62 g/ha) and in the assay with Setaria faberi (62 g/ha) was 100% in each case.
As for `COc1c(Br)cc(F)c(C)c1Nc1nc(N)nc(C(C)(F)F)n1` [Example 77], the herbicidal activity in the assay with Amaranthus retroflexus (62 g/ha), in the assay with Echinocloa crus-galli (62 g/ha) and in the assay on Setaria faberi (62 g/ha) was 100% each time.
In the case of `COc1c(Br)cc(F)c(C)c1Nc1nc(N)nc(C2(F)CCCC2)n1` [Example 78], the herbicidal activity with Amaranthus retroflexus (62 g/ha), in the assay on Echinocloa crus-galli (62 g/ha) and with Setaria faberi (62 g/ha) was 100% each time.
Consider `COc1c(Br)cc(F)c(C)c1Nc1nc(N)nc(C(C)(C)F)n1` [Example 80], for which the herbicidal activity in the assay with Amaranthus retroflexus (62 g/ha), in the assay with Echinocloa crus-galli (62 g/ha) and in the assay with Setaria faberi (62 g/ha) was 100% in each case.
Take `CC#CCOc1c(Br)cc(C)c(Cl)c1Nc1nc(N)nc(C(C)(C)F)n1` [Example 82]: the herbicidal activity in the assay with Amaranthus retroflexus (62 g/ha), in the assay with Echinocloa crus-galli (62 g/ha) and in the assay with Setaria faberi (62 g/ha) was 100% each time.
As for `COc1c(Br)cc(C)c(Cl)c1Nc1nc(N)nc(C(C)(C)F)n1` [Example 83], the herbicidal activity with Amaranthus retroflexus (62 g/ha), in the assay with Echinocloa crus-galli (62 g/ha) and in the assay with Setaria faberi (62 g/ha) was 100% throughout.
As to `COc1c(F)ccc(Cl)c1Nc1nc(N)nc(C(C)(F)CBr)n1` (stereo not shown) [Example 86], the herbicidal activity in the assay on Amaranthus retroflexus (62 g/ha), with Echinocloa crus-galli (62 g/ha) and in the assay with Setaria faberi (62 g/ha) was 100% throughout.
Regarding `COc1c(F)ccc(Cl)c1Nc1nc(N)nc(C(C)(C)OC)n1` [Example 87], the herbicidal activity in the assay on Amaranthus retroflexus (62 g/ha), in the assay on Echinocloa crus-galli (62 g/ha) and with Setaria faberi (62 g/ha) was 100% throughout.
Consider `CC#CCOc1c(F)ccc(Cl)c1Nc1nc(N)nc(C(C)(F)F)n1` [Example 88], for which the herbicidal activity with Amaranthus retroflexus (62 g/ha), with Echinocloa crus-galli (62 g/ha) and in the assay with Setaria faberi (62 g/ha) was 100% throughout.
As for `CC#CCOc1c(F)ccc(Cl)c1Nc1nc(N)nc(C(F)C(C)C)n1` (stereo not shown) [Example 89], the herbicidal activity in the assay with Amaranthus retroflexus (62 g/ha), in the assay on Echinocloa crus-galli (62 g/ha) and with Setaria faberi (62 g/ha) was 100% in each case.
On to `CC#CCOc1c(F)ccc(Cl)c1Nc1nc(N)nc(C(C)(C)OC)n1` [Example 90], for which the herbicidal activity with Amaranthus retroflexus (62 g/ha), in the assay with Echinocloa crus-galli (62 g/ha) and in the assay with Setaria faberi (62 g/ha) was 100% throughout.
As to `CC#CCOc1c(F)ccc(Cl)c1Nc1nc(N)nc(C(C)(F)CBr)n1` (stereo not shown) [Example 91], the herbicidal activity in the assay with Amaranthus retroflexus (62 g/ha), in the assay on Echinocloa crus-galli (62 g/ha) and in the assay with Setaria faberi (62 g/ha) was 100% in each case.
`Nc1nc(Nc2c(Cl)cccc2OC(F)F)nc(C2(F)CCCC2)n1` [Example 94]: the herbicidal activity in the assay on Amaranthus retroflexus (62 g/ha), in the assay on Echinocloa crus-galli (62 g/ha) and with Setaria faberi (62 g/ha) was 100% each time.

The record behind these values is US20240150303A1, “DIAMINOTRIAZINE COMPOUNDS” (BASF SE, priority 2021, published 2024).
